In patent US20250092056A1, “URACIL DERIVATIVES HAVING VIRUS REPLICATION INHIBITORY ACTIVITY AND PHARMACEUTICAL COMPOSITION COMPRISING THE SAME” (Shionogi & Co., Ltd., priority 2022, published 2025):
Where two headings read alike, the source gives them in different places.

How the values were obtained:
SARS-CoV-2 = experiment: Cytopathic effect (CPE) suppression effect confirmation test using HEK293T/ACE2-TMPRSS2 cells; type: cell-based; details: Severe acute respiratory syndrome coronavirus 2, HEK-293T
[1] = target: Recombinant SARS-CoV-2 3CL Protease (Severe acute respiratory syndrome coronavirus 2 (2019-nCoV) (SARS-CoV-2), UniProt P0DTD1); experiment: biochemical; type: biochemical; details: 50% SARS-CoV-2 3CL protease inhibitory concentration; read-out: IC50
[2] = 72 h, read-out: EC50 (50% SARS-CoV-2 infected cell death inhibitory concentration), class, HEK293T/ACE2-TMPRSS2 cells, CPE suppression, CellTiter-Glo 2.0 after 3 days culture
[3] = 50% SARS-CoV-2 infected cell death inhibitory concentration, HEK293T/ACE2-TMPRSS2 cells, read-out: EC50
[4] = 72 h, read-out: EC50 (50% SARS-CoV-2 infected cell death inhibitory concentration), HEK293T/ACE2-TMPRSS2 cells, CPE suppression, CellTiter-Glo 2.0 after 3 days culture
[5] = 72 h, HEK293T/ACE2-TMPRSS2 cells, CPE suppression, CellTiter-Glo 2.0 after 3 days culture, read-out: EC50 (50% SARS-CoV-2 infected cell death inhibitory concentration), class

SMILES | EC50 (SARS-CoV-2; [2]) [nM] | IC50 [1] [nM] | EC50 (SARS-CoV-2; [3]) [nM] | EC50 (SARS-CoV-2; [4]) [nM] | EC50 (SARS-CoV-2; [5]) [nM]
Cc1cncc(-n2c(=O)c(Cc3cc(F)c(F)c(F)c3)c(N3CCC(C(F)F)C3)n(CC#N)c2=O)c1 (racemic) [Compound I-107] | < 100 | < 10 |  |  | 
N#CCn1c(C2(O)CCC2)c(-c2ccc(F)c(Cl)c2)c(=O)n(-c2cncc(Cl)c2)c1=O [Compound I-348] |  | 10 to 100 | < 100 |  | 
Cc1cncc(-n2c(=O)c(Cc3cc(F)c(F)c(F)c3)c(N3CCC(C(F)(F)F)C3)n(CC#N)c2=O)c1 (racemic) [Compound I-113] | < 100 | < 10 |  |  | 
N#CCn1c(N2CC(OC(F)(F)F)C2)c(-c2ccc(F)c(Cl)c2)c(=O)n(-c2cncc(Cl)c2)c1=O [Compound I-257] |  | 0.35 |  | 2.98 | 
C[C@H](C#N)n1c(N2CC[C@@](O)(C(F)F)C2)c(-c2ccc(F)c(Cl)c2)c(=O)n(-c2cncc(Cl)c2)c1=O (single isomer, unassigned) [Compound I-423] |  | < 10 | < 100 |  | 
N#CCn1c(CCC2(O)CCC2)c(-c2ccc(F)c(F)c2)c(=O)n(-c2cncc(Cl)c2)c1=O [Compound I-436] |  | < 10 | < 100 |  | 
CC(C)(O)C1CN(c2c(-c3ccc(F)c(Cl)c3)c(=O)n(-c3cnc4cc(Cl)ccn34)c(=O)n2CC#N)C1 [Compound I-133] |  | 10 to 100 |  |  | < 100
N#CCn1c(N2CC3(C2)CC(F)(F)C3)c(-c2ccc(F)c(Cl)c2)c(=O)n(-c2cc(Cl)cnn2)c1=O [Compound I-214] |  | < 10 | < 100 |  | 
N#CCn1c(N2CCC(F)(F)CC2)c(-c2cc(F)c(F)c(F)c2)c(=O)n(-c2cncc(Cl)c2)c1=O [Compound I-326] |  | < 10 | < 100 |  | 
Cc1cncc(-n2c(=O)c(-c3ccc(F)c(Cl)c3)c(-c3nc4ccccc4s3)n(CC#N)c2=O)c1 [Compound I-120] | < 100 | < 10 |  |  | 
Cc1cncc(-n2c(=O)c(Cc3cc(F)c(F)c(F)c3)c(N3CCC(S(N)(=O)=O)C3)n(CC#N)c2=O)c1 (racemic) [Compound I-108] | 100 to 1000 | < 10 |  |  | 
Cc1ccc(-c2c(Cc3cc(F)c(F)c(F)c3)c(=O)n(-c3cncc(Cl)c3)c(=O)n2CC#N)cc1C [Compound I-058] | < 100 | < 10 |  |  | 
CC(C)=Cc1c(-c2ccc(F)c(Cl)c2)c(=O)n(-c2cncc(Cl)c2)c(=O)n1CC#N [Compound I-301] |  | < 10 | < 100 |  | 
N#CCn1c(N2CC3(C2)CC(F)(F)C3)c(-c2ccc(F)c(Cl)c2)c(=O)n(-c2cncc(OC(F)F)n2)c1=O [Compound I-332] |  | < 10 | < 100 |  | 
N#CCn1c(N2CC(O)(C(F)(F)F)C2)c(-c2ccc(F)c(C(F)F)c2)c(=O)n(-c2cncc(Cl)c2)c1=O [Compound I-340] |  | < 10 | < 100 |  | 
N#CCn1c(N2CCC(C(F)F)CC2)c(-c2ccc(F)c(C(F)F)c2)c(=O)n(-c2cncc(C#N)c2)c1=O [Compound I-413] |  | < 10 | < 100 |  | 
N#CCn1c(N2CC(OC(F)F)C2)c(-c2ccc(F)c(Cl)c2)c(=O)n(-c2cncc(C(F)(F)F)n2)c1=O [Compound I-335] |  | < 10 | < 100 |  | 
N#CCn1c(N2CCC(F)(F)CC2)c(-c2ccc(F)c(C(F)F)c2)c(=O)n(-c2cncc(C#N)c2)c1=O [Compound I-417] |  | < 10 | < 100 |  | 
N#CCn1c(N2CCC(C(F)F)CC2)c(-c2ccc(F)c(F)c2)c(=O)n(-c2cncc(C#N)c2)c1=O [Compound I-412] |  | < 10 | < 100 |  | 
N#CCn1c(N2CC(OC(F)F)C2)c(-c2ccc(F)c(F)c2)c(=O)n(-c2cncc(Cl)c2)c1=O [Compound I-319] |  | < 10 | < 100 |  | 
N#CCn1c(N2CC(OC(F)F)C2)c(-c2ccc(F)c(Cl)c2)c(=O)n(-c2cncc(C#N)c2)c1=O [Compound I-437] |  | < 10 | < 100 |  | 
N#CCn1c(N2CC3(C2)CC(F)(F)C3)c(-c2ccc(F)c(Cl)c2)c(=O)n(-c2cncc(C(F)F)n2)c1=O [Compound I-208] |  | 1.8 |  | 7.04 | 
Cc1cncc(-n2c(=O)c(Cc3cc(F)c(F)c(F)c3)c(-c3cc4ccccc4s3)n(CC#N)c2=O)c1 [Compound I-019] | < 100 | < 10 |  |  | 
CC(=O)Nc1cccc(-c2c(N3CCC(F)(F)CC3)n(CC#N)c(=O)n(-c3cncc(Cl)c3)c2=O)c1 [Compound I-263] |  | > 100 | 1000 to 5000 |  | 
N#CCn1c(N2CC3(C2)CC(F)(F)C3)c(-c2ccc(F)c(Cl)c2)c(=O)n(-c2cncc(C(F)(F)F)n2)c1=O [Compound I-207] |  | < 10 | < 100 |  | 
N#CCn1c(N2CCOC2=O)c(-c2ccc(F)c(Cl)c2)c(=O)n(-c2cncc(Cl)c2)c1=O [Compound I-243] |  | > 100 | 100 to 1000 |  | 

SMILES | EC50 (SARS-CoV-2; [2]) [nM] | IC50 [1] [nM] | EC50 (SARS-CoV-2; [3]) [nM] | EC50 (SARS-CoV-2; [4]) [nM] | EC50 (SARS-CoV-2; [5]) [nM]
N#CCn1c(N2CC(F)(C3CC3)C2)c(-c2ccc(F)c(Cl)c2)c(=O)n(-c2cncc(OCF)c2)c1=O [Compound I-347] |  | < 10 | < 100 |  | 
Cc1cncc(-n2c(=O)c(Cc3cc(F)c(F)c(F)c3)c(-c3ccc(C)c(C)c3)n(CC#N)c2=O)c1 [Compound I-060] |  | 4.7 |  | 19 | 
COC1CN(c2c(-c3ccc(F)c(Cl)c3)c(=O)n(-c3cncc(C(F)F)n3)c(=O)n2CC#N)C1 [Compound I-396] |  | < 10 | < 100 |  | 
CC1(O)CN(c2c(-c3ccc(F)c(Cl)c3)c(=O)n(-c3cncc(Cl)c3)c(=O)n2CC#N)C1 [Compound I-296] |  | < 10 | < 100 |  | 
Cc1cncc(-n2c(=O)c(Cc3cc(F)c(F)c(F)c3)c(N3CC(F)C3)n(CC#N)c2=O)c1 [Compound I-090] |  | 10 to 100 |  |  | < 100
CC1(O)CN(c2c(-c3ccc(F)c(Cl)c3)c(=O)n(-c3cncc(C(F)F)n3)c(=O)n2CC#N)C1 [Compound I-382] |  | < 10 | < 100 |  | 
Cc1cncc(-n2c(=O)c(-c3cccc(Cl)c3)c(N3Cc4ccccc4C3)n(CC#N)c2=O)c1 [Compound I-042] | < 100 | < 10 |  |  | 
N#CCn1c(N2CC3(C2)CC(O)(c2ccccc2)C3)c(-c2ccc(F)c(Cl)c2)c(=O)n(-c2cncc(Cl)c2)c1=O [Compound I-259] |  | 0.45 |  | 5.44 | 
N#CCn1c(N2CC(O)C2)c(-c2ccc(F)c(C(F)F)c2)c(=O)n(-c2cncc(C#N)c2)c1=O [Compound I-416] |  | < 10 | < 100 |  | 
Cc1cncc(-n2c(=O)c(-c3ccc(F)c(Cl)c3)c(-c3ccc(S(N)(=O)=O)cc3)n(CC#N)c2=O)c1 [Compound I-275] |  | < 10 | 100 to 1000 |  | 
N#CCn1c(N2CCC2)c(-c2ccc(F)c(Cl)c2)c(=O)n(-c2cncc(Cl)c2)c1=O [Compound I-251] |  | < 10 | < 100 |  | 
N#CCn1c(N2CC(C(F)(F)F)C2)c(-c2ccc(F)c(F)c2)c(=O)n(-c2cncc(Cl)c2)c1=O [Compound I-316] |  | < 10 | < 100 |  | 
Cc1cncc(-n2c(=O)c(Cc3cc(F)c(F)c(F)c3)c(N3Cc4ccccc4C3)n(CC#N)c2=O)c1 [Compound I-205] |  | 0.76 |  | 5 | 
Cc1cncc(-n2c(=O)c(-c3ccc(F)c(Cl)c3)c(-c3cnc(C)nc3)n(CC#N)c2=O)c1 [Compound I-022] | < 100 | < 10 |  |  | 
N#CCn1c(N2CC3(C2)CC(F)(F)C3)c(-c2ccc(F)c(Cl)c2)c(=O)n(-c2cc(Cl)c[n+]([O-])c2)c1=O [Compound I-426] |  | < 10 | < 100 |  | 
Cc1cc(-n2c(=O)c(-c3ccc(F)c(Cl)c3)c(-c3nc4ccccc4s3)n(CC#N)c2=O)cc(=O)[nH]1 [Compound I-189] | < 100 | < 10 |  |  | 
N#CCn1c(N2Cc3ccccc3C2)c(Cc2cc(F)c(F)c(F)c2)c(=O)n(-c2nnc3ccccn23)c1=O [Compound I-156] |  | 10 to 100 |  |  | < 100
Cc1cc(-n2c(=O)c(Cc3cc(F)c(F)c(F)c3)c(N3Cc4ccccc4C3)n(CC#N)c2=O)cc(=O)[nH]1 [Compound I-159] |  | 10 to 100 |  |  | 100 to 1000
N#CCn1c(N2Cc3cn[nH]c3C2)c(Cc2cc(F)c(F)c(F)c2)c(=O)n(-c2cc[nH]c(=O)c2)c1=O [Compound I-053] |  | 32 |  | 2610 | 
N#CCn1c(-c2cc3ccccc3s2)c(Sc2cc(F)c(F)c(F)c2)c(=O)n(-c2cncc(Cl)c2)c1=O [Compound I-168] |  | 10 to 100 |  |  | < 100
Cc1cncc(-n2c(=O)c(-c3ccc(F)c(Cl)c3)c(-c3ccc(F)cc3)n(CC#N)c2=O)c1 [Compound I-272] |  | < 10 | < 100 |  | 
Cc1cncc(-n2c(=O)c(-c3ccc(F)c(Cl)c3)c(-c3ccc(C(F)(F)F)c(Cl)c3)n(CC#N)c2=O)c1 [Compound I-066] | < 100 | < 10 |  |  | 
N#CCn1c(N2CC3(C2)CC(F)(F)C3)c(-c2ccc(F)c(Cl)c2)c(=O)n(-c2cnc3cc(F)c(F)cn23)c1=O [Compound I-323] |  | < 10 | < 100 |  | 
N#CCn1c(N2CC3(CCOC3)C2)c(-c2ccc(F)c(Cl)c2)c(=O)n(-c2cnc3ccc(F)cn23)c1=O [Compound I-130] | < 100 | < 10 |  |  | 
N#CCn1c(N2CC3(CCOC3)C2)c(-c2ccc(F)c(Cl)c2)c(=O)n(-c2cncc(C(F)(F)F)n2)c1=O [Compound I-190] | < 100 | < 10 |  |  | 
